Source: ChEMBL document CHEMBL2417484, “Mitotic kinesin Eg5 overcomes inhibition to the phase I/II clinical candidate SB743921 by an allosteric resistance mechanism” (J Med Chem, 2013)
Positions count from the first letter of the chain named.

Key:
[1] = tested on: T1, Kinesin-like protein KIF11 (Homo sapiens), P52732 [D130V]; test: Inhibition of microtubule-stimulated ATPase activity of human Eg5 D130V mutant expressed in Escherichia coli BL21 by pyruvate kinase/lactate dehydrogenase-linked assay relative to control
T1 sequence (whole entry): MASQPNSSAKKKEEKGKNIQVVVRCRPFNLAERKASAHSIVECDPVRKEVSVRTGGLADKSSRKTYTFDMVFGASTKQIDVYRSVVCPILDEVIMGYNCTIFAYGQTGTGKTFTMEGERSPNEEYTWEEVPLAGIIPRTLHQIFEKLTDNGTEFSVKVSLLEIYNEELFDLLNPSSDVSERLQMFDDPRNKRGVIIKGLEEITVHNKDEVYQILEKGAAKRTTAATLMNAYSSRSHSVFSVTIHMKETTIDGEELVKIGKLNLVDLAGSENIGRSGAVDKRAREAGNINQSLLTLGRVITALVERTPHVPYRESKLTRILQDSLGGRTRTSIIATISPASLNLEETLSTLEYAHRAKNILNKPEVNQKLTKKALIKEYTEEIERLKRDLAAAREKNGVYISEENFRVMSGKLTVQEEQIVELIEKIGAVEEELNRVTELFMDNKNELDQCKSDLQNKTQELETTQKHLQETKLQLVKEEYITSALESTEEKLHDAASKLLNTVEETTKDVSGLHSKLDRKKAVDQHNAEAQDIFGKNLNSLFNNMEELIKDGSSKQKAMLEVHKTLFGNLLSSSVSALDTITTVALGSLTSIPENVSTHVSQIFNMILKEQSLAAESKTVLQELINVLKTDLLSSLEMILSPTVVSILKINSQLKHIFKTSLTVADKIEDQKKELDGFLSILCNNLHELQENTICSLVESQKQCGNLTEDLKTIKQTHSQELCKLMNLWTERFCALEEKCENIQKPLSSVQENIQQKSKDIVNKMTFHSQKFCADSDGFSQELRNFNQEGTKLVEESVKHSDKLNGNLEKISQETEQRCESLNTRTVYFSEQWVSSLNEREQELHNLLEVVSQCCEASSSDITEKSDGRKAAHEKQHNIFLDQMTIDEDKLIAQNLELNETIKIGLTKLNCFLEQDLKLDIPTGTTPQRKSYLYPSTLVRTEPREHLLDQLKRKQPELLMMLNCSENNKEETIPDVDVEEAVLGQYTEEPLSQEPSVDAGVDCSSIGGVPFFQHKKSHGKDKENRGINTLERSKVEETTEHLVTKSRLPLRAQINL

[2] = molecular target: T2, Kinesin-like protein KIF11 (Homo sapiens) (UniProt P52732); test: Inhibition of microtubule-stimulated ATPase activity of N-terminal His-6-tagged human wild type Eg5 (1 to 368) expressed in Escherichia coli BL21 by pyruvate kinase/lactate dehydrogenase-linked assay relative to control
T2 sequence (whole entry): T1 sequence (whole entry) with V130D

[3] = tested on: T3, Kinesin-like protein KIF11 (Homo sapiens), P52732 [A133D]; test: Inhibition of microtubule-stimulated ATPase activity of human Eg5 A133D mutant expressed in Escherichia coli BL21 by pyruvate kinase/lactate dehydrogenase-linked assay relative to control
T3 sequence (whole entry): T1 sequence (whole entry) with V130D, A133D

[4] = tested on: T4, Kinesin-like protein KIF11 (Homo sapiens), P52732 [D130V,A133D]; test: Inhibition of microtubule-stimulated ATPase activity of human Eg5 D130V/A133D mutant expressed in Escherichia coli BL21 by pyruvate kinase/lactate dehydrogenase-linked assay relative to control
T4 sequence (whole entry): T1 sequence (whole entry) with A133D

ICmax [1]: 50%
ICmax [2]: 95%
ICmax [3]: 50%
ICmax [4]: 10%
Compound: Cc1ccc(C(=O)N(CCCN)[C@@H](c2oc3cc(Cl)ccc3c(=O)c2Cc2ccccc2)C(C)C)cc1
